Test results published in article PMC8879200, “Design, Synthesis, and Biological Evaluation of 4,4’-Difluorobenzhydrol Carbamates as Selective M1 Antagonists” (Pharmaceuticals, 2022).
“And” between values parts separate entries of the source, which are not always exact repeats. Identical values can stand only once. Like-named read-outs stand apart in the source and are kept apart here.

Columns and labels:
hM3 = biological target: T1, hM3 (Homo sapiens, UniProt P20309); experiment: Competitive [3H]NMS radioligand binding, CHO-hM3 cell membranes; conditions: for Ki: read-out: Affinity: Ki ± SD, hM3
T1 construct: host or cells: CHO-K1, stably transfected
T1 sequence (P20309 whole entry): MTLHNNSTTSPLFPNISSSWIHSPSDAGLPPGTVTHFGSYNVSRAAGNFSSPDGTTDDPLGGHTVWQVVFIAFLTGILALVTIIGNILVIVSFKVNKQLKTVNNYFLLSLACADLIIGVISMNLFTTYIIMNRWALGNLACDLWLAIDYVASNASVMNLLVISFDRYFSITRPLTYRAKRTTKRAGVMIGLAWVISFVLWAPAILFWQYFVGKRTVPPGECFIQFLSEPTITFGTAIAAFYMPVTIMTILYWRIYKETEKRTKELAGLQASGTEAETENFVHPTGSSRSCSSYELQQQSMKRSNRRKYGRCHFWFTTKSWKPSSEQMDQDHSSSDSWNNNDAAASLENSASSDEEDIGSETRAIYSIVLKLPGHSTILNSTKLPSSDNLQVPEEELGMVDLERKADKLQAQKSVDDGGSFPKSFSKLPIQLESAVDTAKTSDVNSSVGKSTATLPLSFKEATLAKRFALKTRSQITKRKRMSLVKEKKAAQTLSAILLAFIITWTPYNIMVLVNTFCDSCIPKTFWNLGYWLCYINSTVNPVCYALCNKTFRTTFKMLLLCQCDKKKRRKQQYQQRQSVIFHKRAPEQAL
Method: (§1) We first assessed the carbamates’ affinities for human muscarinic acetylcholine receptors subtypes hM1–5 by means of a competitive radioligand binding assay displacing [N-methyl-^3H]scopolamine methyl chloride ([^3H]NMS) in cell membranes expressing the individual receptors.
(§2) Cell membranes bearing hM1-hM5 receptors were prepared as described previously. Briefly, stably transfected CHO-K1 cells were grown to at least 80% confluency in T175 flasks, washed with ice-cold DPBS, and scraped into a mixture of ice-cold of 2 mL 10 mM Tris-HCl, 1 mM EDTA-buffer, pH 7.4 and 200 µL protease inhibitor. A cell homogenate was prepared by passing the cell suspension through a G29 needle. The cell homogenates corresponding to two T175 flasks were combined and subsequently centrifuged (10 min, 1000 × g, 4 °C). Ultracentrifugation of the supernatant (1 h, 100,000 × g, 4 °C) yielded a membrane pellet, which was suspended in 250 µL 50 mM Tris-HCl buffer, pH 7.4 and stored at −80 °C.
(§3) Maximum binding was measured by using 5 µL DMSO, and nonspecific binding was measured by using 5 µL of 1 µM scopolamine in DMSO. […] The membrane-bound radioactivity was recovered by filtration through Whatman™ GF/B glass fibre filters pre-soaked in aqueous 0.1% PEI using an M-36 tygon tubed cell harvester (Brandel®, Gaithersburg, MD, USA). Membranes were washed 3 times with ice-cold washing buffer (50 mM Tris, pH 7.4) before being dried, transferred to 2 mL scintillation cocktail (UltimaGold™, high flashpoint LSC cocktail, PerkinElmer, Waltham, MA, USA) and counted in a β -counter (Hidex TDCR Liquid Scintillation Counter in CPM mode). IC50 values were calculated by a variable slope logistic regression using at least five distinct concentrations of test compounds, pipetted in triplicates.

hM2 = biological target: T2, hM2 (Homo sapiens, UniProt P08172); experiment: Competitive [3H]NMS radioligand binding, CHO-hM2 cell membranes; conditions: for Ki: read-out: Affinity: Ki ± SD, hM2
T2 construct: host or cells: CHO-K1, stably transfected
T2 sequence (P08172 1-466): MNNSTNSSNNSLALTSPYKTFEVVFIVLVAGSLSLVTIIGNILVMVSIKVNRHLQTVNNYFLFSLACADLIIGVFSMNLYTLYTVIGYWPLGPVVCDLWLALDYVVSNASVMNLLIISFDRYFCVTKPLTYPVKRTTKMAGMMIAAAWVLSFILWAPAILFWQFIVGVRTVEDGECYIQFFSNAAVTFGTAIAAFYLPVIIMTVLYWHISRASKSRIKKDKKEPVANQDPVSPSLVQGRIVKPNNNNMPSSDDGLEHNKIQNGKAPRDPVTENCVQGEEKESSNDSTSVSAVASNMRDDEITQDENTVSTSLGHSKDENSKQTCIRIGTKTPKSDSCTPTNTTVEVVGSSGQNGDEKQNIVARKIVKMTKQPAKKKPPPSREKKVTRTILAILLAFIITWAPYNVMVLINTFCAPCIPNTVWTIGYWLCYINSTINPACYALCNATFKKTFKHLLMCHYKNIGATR
Method: as §1, §2, §3

hM4 = biological target: T3, hM4 (Homo sapiens, UniProt P08173); experiment: Competitive [3H]NMS radioligand binding, CHO-hM4 cell membranes
T3 construct: host or cells: CHO-K1, stably transfected
T3 sequence (P08173 1-479): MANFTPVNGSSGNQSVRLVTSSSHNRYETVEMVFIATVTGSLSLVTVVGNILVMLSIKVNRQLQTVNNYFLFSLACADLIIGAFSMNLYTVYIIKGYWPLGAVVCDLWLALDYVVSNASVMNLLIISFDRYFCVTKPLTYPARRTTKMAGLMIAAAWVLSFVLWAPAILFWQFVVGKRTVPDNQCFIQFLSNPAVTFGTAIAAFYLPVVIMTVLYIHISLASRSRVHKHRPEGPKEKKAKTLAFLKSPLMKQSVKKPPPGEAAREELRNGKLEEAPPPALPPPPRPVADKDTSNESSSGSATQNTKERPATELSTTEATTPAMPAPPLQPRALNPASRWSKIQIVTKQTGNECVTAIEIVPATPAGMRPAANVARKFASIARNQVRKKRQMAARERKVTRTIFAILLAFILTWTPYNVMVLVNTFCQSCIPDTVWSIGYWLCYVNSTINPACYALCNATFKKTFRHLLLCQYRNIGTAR
Method: as §1, §2, §3

hM5 = biological target: T4, hM5 (Homo sapiens, UniProt P08912); experiment: Competitive [3H]NMS radioligand binding, CHO-hM5 cell membranes
T4 construct: host or cells: CHO-K1, stably transfected
T4 sequence (P08912 1-532): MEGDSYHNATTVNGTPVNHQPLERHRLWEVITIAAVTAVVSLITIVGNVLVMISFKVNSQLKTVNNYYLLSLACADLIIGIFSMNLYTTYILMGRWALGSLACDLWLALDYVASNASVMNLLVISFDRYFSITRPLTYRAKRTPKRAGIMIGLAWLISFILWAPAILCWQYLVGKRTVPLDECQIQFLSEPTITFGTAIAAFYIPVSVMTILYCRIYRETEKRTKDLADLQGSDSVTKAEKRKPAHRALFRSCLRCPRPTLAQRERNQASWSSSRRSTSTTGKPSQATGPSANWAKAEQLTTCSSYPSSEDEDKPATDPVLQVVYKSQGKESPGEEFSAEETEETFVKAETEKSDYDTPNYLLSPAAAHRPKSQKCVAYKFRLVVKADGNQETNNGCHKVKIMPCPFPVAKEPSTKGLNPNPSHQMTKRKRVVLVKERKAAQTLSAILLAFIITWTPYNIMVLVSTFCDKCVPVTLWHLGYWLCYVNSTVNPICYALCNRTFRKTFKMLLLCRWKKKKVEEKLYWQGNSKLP
Method: as §1, §2, §3

[1] = High throughput HPLC-logD (lipophilicity); conditions: pH 7.4
Method: Briefly, a mixture of toluene (≥98%, Sigma-Aldrich, St. Louis, MO, USA) and triphenylene (≥99.9%, Carl Roth, Karlsruhe, Germany) was used as internal standard. Each sample was dissolved in the internal standard mixture. Using gradient elution, the injection volume was set to 7 µL, the flow rate was 1.5 mL/min, and the mobile phase consisted of a mixture of methanol and 0.01 M sodium phosphate buffer pH 7.4. The HPLC-logD values were derived from the measured retention times following the previously published equation [27, 30].

hM1 = biological target: T5, hM1 (Homo sapiens, UniProt P11229); experiment: Competitive [3H]NMS radioligand binding, CHO-hM1 cell membranes
T5 construct: host or cells: CHO-K1, stably transfected
T5 sequence (P11229 1-460): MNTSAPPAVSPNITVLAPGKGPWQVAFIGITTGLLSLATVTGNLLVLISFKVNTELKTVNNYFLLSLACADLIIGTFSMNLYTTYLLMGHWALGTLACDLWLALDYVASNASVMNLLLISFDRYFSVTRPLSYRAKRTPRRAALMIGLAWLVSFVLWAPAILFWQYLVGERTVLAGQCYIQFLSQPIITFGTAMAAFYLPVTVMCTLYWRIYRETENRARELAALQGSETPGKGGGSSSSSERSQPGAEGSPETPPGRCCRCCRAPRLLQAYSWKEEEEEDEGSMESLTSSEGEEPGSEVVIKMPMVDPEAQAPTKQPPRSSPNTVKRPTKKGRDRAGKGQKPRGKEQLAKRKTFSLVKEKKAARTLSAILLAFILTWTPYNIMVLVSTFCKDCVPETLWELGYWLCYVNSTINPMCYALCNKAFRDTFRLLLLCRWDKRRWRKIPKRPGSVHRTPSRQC
Method: as §1, §2, §3

[2] = Stability in fully supplemented RPMI1640 cell culture medium; type: in vitro ADME; conditions: fully supplemented RPMI1640, ambient temperature, after 24 h
Method: Since the decomposition in cell culture medium of compounds designated for biological testing could impair potential assay readouts, the stabilities of one tertiary carbamate (3) and one secondary carbamate (7) were investigated as representatives for the compound set 1–12. Gratifyingly, the rate of decomposition in fully supplemented RPMI1640 cell culture medium at ambient temperature has been fairly slow, with > 95% of both compounds remaining intact after 24 h (Supplementary Materials, Figure S3). Such stability is adequate with the requirements for carbon-11 labelled PET tracers of around 2–3 half-lives.
The stabilities of 3 and 7 were measured using the HPLC gradient method as described for the purity determination. 4 µL of a test compound’s stock solution in DMSO was diluted with fully supplemented RPMI1640 cell culture medium (10% FBS, 1% L-glutamine, without antibiotics). The stability was measured at ambient temperature and the column oven was set to 20 °C. The samples were measured at 0, 30, 60, 120 min and 24 h.

[3] = single ligand concentration corresponding to a Ki of 1 µM (Cheng-Prusoff)
[4] = inhibition of [3H]NMS binding, CHO-hM4 membranes, read-out: Affinity: Ki ± SD, hM4
[5] = inhibition of [3H]NMS binding, CHO-hM5 membranes, read-out: Affinity: Ki ± SD, hM5
[6] = inhibition of [3H]NMS binding, CHO-hM1 membranes, read-out: Affinity: Ki ± SD, hM1

SMILES | Displacement ± SD of [3H]NMS binding, hM3 (hM3; [3]) [%] | Displacement ± SD of [3H]NMS binding, hM2 (hM2; [3]) [%] | Displacement ± SD of [3H]NMS binding, hM4 (hM4; [3]) [%] | Displacement ± SD of [3H]NMS binding, hM5 (hM5; [3]) [%] | chromatographic logD [1] | Displacement ± SD of [3H]NMS binding, hM1 (hM1; [3]) [%] | x-Fold selectivity for hM1 vs. hM3 (hM3; ratio of Ki values hM3/hM1) [fold] | Ki (hM3) [nM] | x-Fold selectivity for hM1 vs. hM2 (hM2; ratio of Ki values hM2/hM1) [fold] | Ki (hM2) [nM] | Ki (hM4; [4]) [nM] | x-Fold selectivity for hM1 vs. hM4 (hM4; ratio of Ki values hM4/hM1) [fold] | Ki (hM5; [5]) [nM] | x-Fold selectivity for hM1 vs. hM5 (hM5; ratio of Ki values hM5/hM1) | Ki (hM1; [6]) [nM] | Compound remaining intact in cell culture medium [2] [%] | Ki (hM4) [nM] | Ki (hM5) [nM] | Ki (hM1) [nM]
CN1CCC(NC(=O)OC(c2ccc(F)cc2)c2ccc(F)cc2)CC1 [Compound 6, Bis(4-fluorophenyl)methyl (1-methylpiperidin-4-yl)carbamate] | 29 ± 5 | 10 ± 7 | 48 ± 9 | 54 ± 8 | 3.25 ± 0.04 | 52 ± 8 | – | – | – | – | – | – | – | – | – | – | – | – | –
CN1[C@@H]2CC[C@H]1CN(C(=O)OC(c1ccc(F)cc1)c1ccc(F)cc1)C2 [Compound 4, Bis(4-fluorophenyl)methyl (1R,5S)-8-methyl-3,8-diazabicyclo[3.2.1]octane-3 carboxylate] | – | – | – | – | 3.28 ± 0.03 | – | – | 142 ± 24.2 | – | 850 ± 39.8 | – | – | – | – | – | – | 19.6 ± 5.5 | 41.8 ± 14.8 | 16.5 ± 2.8
CN1CC2CC1CN2C(=O)OC(c1ccc(F)cc1)c1ccc(F)cc1 (centres unmarked) [Compound 3, Bis(4-fluorophenyl)methyl5-methyl-2,5-diazabicyclo[2.2.1]heptane-2-carboxylate] | – | – | – | – | 2.69 ± 0.01 | – | – | 358 ± 83 | – | > 1000 | 115 ± 51 | – | 68 ± 22.1 | – | 33.1 ± 8.1 | > 95 | – | – | –

More lines, main results first:

Displacement ± SD of [3H]NMS binding, hM3 (hM3; [3]) [%] | Displacement ± SD of [3H]NMS binding, hM2 (hM2; [3]) [%] | Displacement ± SD of [3H]NMS binding, hM4 (hM4; [3]) [%] | Displacement ± SD of [3H]NMS binding, hM5 (hM5; [3]) [%] | chromatographic logD [1] | Displacement ± SD of [3H]NMS binding, hM1 (hM1; [3]) [%] | x-Fold selectivity for hM1 vs. hM3 (hM3; ratio of Ki values hM3/hM1) [fold] | Ki (hM3) [nM] | x-Fold selectivity for hM1 vs. hM2 (hM2; ratio of Ki values hM2/hM1) [fold] | Ki (hM2) [nM] | Ki (hM4; [4]) [nM] | x-Fold selectivity for hM1 vs. hM4 (hM4; ratio of Ki values hM4/hM1) [fold] | Ki (hM5; [5]) [nM] | x-Fold selectivity for hM1 vs. hM5 (hM5; ratio of Ki values hM5/hM1) | Ki (hM1; [6]) [nM] | Compound remaining intact in cell culture medium [2] [%] | SMILES | Ki (hM4) [nM] | Ki (hM5) [nM] | Ki (hM1) [nM]
– | – | – | – | 2.69 ± 0.01 | – | 6.6 | 165 ± 37.5 | >40 | > 1000 | 150 ± 52.9 | 6.0 | 231 ± 25.7 | 9 fold and 9.3 fold | 24.9 ± 6.2 | – | CN1CC2(CCN(C(=O)OC(c3ccc(F)cc3)c3ccc(F)cc3)C2)C1 [Compound 5, Bis(4-fluorophenyl)methyl 2-methyl-2,6-diazaspiro[3.4]octane-6-carboxylate] | – | – | –
– | – | – | – | 3.2 ± 0.02 | – | – | 28.4 ± 10.7 | – | 227 ± 85.9 | 14.4 ± 5.5 | – | 4.8 ± 1.6 | – | 1.2 ± 0.4 | – | CN1CCCN(C(=O)OC(c2ccc(F)cc2)c2ccc(F)cc2)CC1 [Compound 2, Bis(4-fluorophenyl)methyl 4-methyl-1,4-diazepane-1-carboxylate] | – | – | –
